# Source: patent publication US9896711B2, “Fluorogenic or fluorophoric compounds and uses thereof” (3M INNOVATIVE PROPERTIES COMPANY, priority 2011, dated 2018)
# Where two headings read alike, the source gives them in different places.
# Experiments:
# [1] = test system: Escherichia coli (ATCC 29425); experiment: Detection of microbial colonies on bacterial culture plates by fluorescence imaging; type: cell-based; settings: for time after which colonies were apparent in the images: Plates 8-1 and C-1, 200 nM, with MX-180 particles, about 20° C. to 27° C.; for mean fluorescence intensity of colonies over time: Plates 8-1 and C-1, averaged across 6 colonies, 30 seconds fluorescent illumination
# Experimental: A mixture of 50 grams of xanthan gum powder and 50 grams of locust bean gum powder was placed in a 500 mL bottle and shaken manually for about 5 minutes. A cover film was prepared by sprinkling the mixture onto the adhesive of a pressure-sensitive adhesive coated sheet that is commercially available under the trade designation 9795R ADVANCED SEALING TAPE from 3M Company in St. Paul Minn. The adhesive coated sheet was tilted to remove excess powder. The coating weight of the gums was approximately 85 milligrams per 24 square inches (i.e, 0.55 milligrams per square centimeter).
# A growth medium mixture was prepared by mixing 22.8 parts of pancreatic digest of casein, 15.9 parts of yeast extract, 45.5 parts of sodium pyruvate, 4.1 parts of dextrose, 9.0 parts of dibasic potassium phosphate, and 2.8 parts of monobasic potassium phosphate. A growth medium broth was prepared by mixing 500 mL of deionized water with 14.78 grams of the growth medium mixture in a beaker using an air motor mixer followed by adding 5 grams of locust bean gum in small increments, and mixing for several minutes. The beaker was covered with foil and the mixture was heated to 80° C., mixed for about 6 minutes, and then allowed to cool for about ten minutes while mixing without heat. The broth was then poured into a sterilized beaker, covered with a plastic bag and refrigerated. The cooled broth was stirred carefully with a spatula to avoid forming air bubbles and then knife coated onto a 24.4 cm wide sheet of 4 mil thick polyethylene terephthalate film that is commercially available under the trade designation MELINEX 453 from DuPont Teijin Films in Hopewell Va. The broth coated film was dried in an oven set at a temperature of 210° C. for about 10 minutes. The dried coating weight was about 1 mg per square centimeter.
# A 20.3 centimeter (cm) wide sheet of 4 mil (a mil is equal to 0.001 inches) thick closed cell polystyrene foam (commercially available from American Fuji Seal, Inc. of Bardstown, Ky.) was laminated to a pressure-sensitive adhesive transfer tape on a release liner. The specific transfer tape used has an acrylic pressure-sensitive adhesive and is commercially available from 3M Company (Saint Paul, Minn.) under the trade designation 3M […] ADHESIVE 927. Circular discs measuring 5 cm in diameter were die-cut and removed from the laminate, forming circular openings centered within a 7.6 cm square from one end of 7.6 cm by 10.16 cm rectangle. The liner was removed and the adhesive-coated surface of the polystyrene foam was adhered to the broth coated film to provide a base member having a broth-coated self-supporting substrate and a hydrophobic spacer element (i.e., “foam dam”) adhered to the broth-coated surface of the supporting substrate. Rectangular plates measuring 7.6 cm by 10.16 cm were cut from the laminate, with the circular openings centered within a 7.6 cm square on one end of the 10.16 cm length. The cover film was attached to the base member with the powder coated side facing the foam dam with a double sided pressure-sensitive adhesive tape to form a culture plate.
# For Example 8, an indicator solution was prepared by dissolving FTU-gal from Example 6 in DMSO at a 50 mM (millimolar) concentration (Indicator 1). The solution was further diluted 20-fold to provide a 2.5 mM solution (Indicator 2).
# For Comparative Example C1, indicator solutions were prepared by dissolving TU-gal in DMSO at a 20 mM concentration (Indicator 3). […]
# β-D-galactosidase = experiment: Emission of fluorogenic galactoside at pH 2.5 to 8.0 in the presence and absence of β-D-galactosidase; type: biochemical; settings: FIG. 6; emission 495 nm, excitation 430 nm, pH 5 to 7, with β-D-galactosidase; about two-thirds of sample fluorinated
# Experimental: Absorbance and emission spectra for the first fraction of FTU-gal was recorded at pH 2.5 to 8.0 in the presence and absence of β-D-galactosidase, and then compared to spectra of TU-gal (prepared according to U.S. Pat. No. 6,566,508 (Bentsen et al.) under the same conditions.
# About two-thirds of the sample tested was fluorinated.
# [2] = see Bioorg. and Med. Chem. Lett., 8, 3107-3110 (1998); cited from earlier work
# physchem = settings: 100 mM phosphate buffer in a 96 well plate, pH 8
# Experimental: A 96 well plate was prepared with each well containing 100 microliters of 100 mM phosphate buffer at pH values ranging from 8.0 to 2.5 in 0.5 unit increments. […] A set of 10× diluted wells were also prepared to eliminate artifacts due to self-quenching of the fluorophore at high concentrations. The 10× dilutions were prepared by diluting the 1 mg/mL solution to 0.1 mg/mL in DMSO, and then adding 10 microliters of this solution to 100 microliters of 100 mM phosphate buffer in each of the wells.
# The absorption spectra from 250 nanometers (nm) to 500 nm were recorded using a SPECTRAMAX M5 fluorescence plate reader (available from Molecular Devices of Sunnyvale Calif.) for each pH value.
# Emission spectra at wavelengths from 410 nm to 700 nm were also recorded on the SPECTRAMAX M5 fluorescence plate reader at an excitation wavelength of 400 nm over the range of pH values in the plate. […]
# The absorption at 400 nm and emission at 450 nm over the range of pH values were recorded on a SPECTRAMAX M5 fluorescence plate reader. […]
# The absorption spectra from 300 nanometers (nm) to 700 nm were recorded for the 10× diluted wells using a SPECTRAMAX M5 fluorescence plate reader (available from Molecular Devices of Sunnyvale Calif.) for each pH value. […]
pKa (physchem),Compound,time after which colonies were apparent in the images [1] [h],mean fluorescence intensity of colonies over time [1],other results
,"O=c1oc2cc(O[C@@H]3O[C@H](CO)[C@H](O)[C@H](O)[C@H]3O)ccc2cc1-c1cccs1 [TU-gal, 3-thienylumbelliferone-pyanogalactoside, reference compound]",14,tended to plateau over time,
,fluorinated 3-thienylumbelliferone-pyranogalactoside [FTU-gal],14,continued to increase,"enhancement in intensity versus TU that is not fluorinated (β-D-galactosidase): more than 2 fold; signal to noise (background) ratio over time ([1]; Plates 8-1 and C-1, six colonies and six background spots): always higher"
,"Cc1cc(=O)oc2c(F)c(O)c(F)cc12 [6,8-difluoro-4-methyl-7-hydroxycoumarin]",,,pKa [2]: 4.2
~6.5,"CCOC(=O)c1cc2ccc(O)cc2oc1=O [EHC, 3-ethylcarboxylate-7-hydroxycoumarin, reference compound]",,,
~4.5,"CCOC(=O)c1cc2cc(F)c(O)cc2oc1=O [6-FEHC, 6-fluoro-3-ethylcarboxylate-7-hydroxycoumarin]",,,
